“Also recorded” adds a separate entry of the source. Read-outs that look alike come from different tables or passages of the source.
What was measured:
MCF7 [1] = experiment: Cytotoxicity in vitro, IC50 on MCF7; type: cell-based; conditions: breast carcinoma
Method: (§1) (5% CO2). […] All the treatments are carried out in triplicate.
(§2) The cytotoxicity of a compound against a cancer cell line is evaluated.

HCT116 [2] = experiment: Cytotoxicity in vitro, IC50 on HCT116; type: cell-based, human
Method: as §1, §2

PC3 [3] = experiment: Cytotoxicity in vitro, IC50 on PC3; type: cell-based
Method: as §1
(§3) PC3: prostatic adenocarcinoma
as §2

SK-OV3 [4] = experiment: Cytotoxicity in vitro, IC50 on SK-OV3; type: cell-based; conditions: ovarian adenocarcinoma
Method: as §1
(§4) SK-OV-3 and OVCAR8: ovarian adenocarcinomas
as §2

OVCAR8 [5] = experiment: Cytotoxicity in vitro, IC50 on OVCAR8; type: cell-based; conditions: ovarian adenocarcinoma
Method: as §1, §4, §2

EPC [6] = experiment: Cytotoxicity in vitro, IC50 on EPC (endothelial progenitor cells); type: cell-based
Method: as §1
(§5) EPC: endothelial progenitor cells
(§6) The endothelial progenitor cells (EPC) play an important role in angiogenesis and vasculogenesis; these last-mentioned contribute to tumour growth, are mobilized by cytokines secreted at cancer sites and contribute to postnatal vasculogenesis and to pathological neovascularization.
as §2

KB = experiment: Percentage of cellular inhibition at 10 μM, KB; type: cell-based; conditions: final concentration 10 μM; buccal carcinoma
Method: as §1

SK-OV3 [7] = experiment: Percentage of cellular inhibition at 10 μM, SK-OV3; type: cell-based; conditions: for Inhibition (in %) {SK-OV3}: final concentration 10 μM, ovarian adenocarcinoma
Method: as §1, §4

OVCAR8 [8] = experiment: Percentage of cellular inhibition at 10 μM, OVCAR8; type: cell-based; conditions: for Inhibition (in %) {OVCAR8}: final concentration 10 μM, ovarian adenocarcinoma
Method: as §1, §4

HL60 = experiment: Percentage of cellular inhibition at 10 μM, HL60; type: cell-based; conditions: final concentration 10 μM; leukaemia
Method: as §1

MCF7 [9] = experiment: Percentage of cellular inhibition at 10 μM, MCF7; type: cell-based; conditions: final concentration 10 μM; breast carcinoma
Method: as §1

HCT116 [10] = experiment: Percentage of cellular inhibition at 10 μM, HCT116; type: cell-based, human; conditions: final concentration 10 μM; colon carcinoma
Method: as §1

PC3 [11] = experiment: Percentage of cellular inhibition at 10 μM, PC3; type: cell-based; conditions: final concentration 10 μM; prostatic adenocarcinoma
Method: as §1, §3

MRC5 = experiment: Percentage of cellular inhibition at 10 μM, MRC5; type: cell-based, human; conditions: for Inhibition (in %) {MRC5}: final concentration 10 μM, human fetal lung cells (non-cancerous)
Method: as §1
MRCS: human fetal lung cells

Vero = experiment: Percentage of cellular inhibition at 10 μM, Vero; type: cell-based, monkey; conditions: for Inhibition (in %) {Vero}: final concentration 10 μM, monkey kidney epithelial cells (non-cancerous); for cytotoxicity on non-cancerous cells Vero (in words): 10 μM
Method: as §1
Vero: monkey kidney epithelial cells

EPC [12] = experiment: Percentage of cellular inhibition at 10 μM, EPC; conditions: for Inhibition (in %) {EPC}: final concentration 10 μM, endothelial progenitor cells
Method: as §1, §6, §5

U87 = experiment: MTS cytotoxicity assay, IC50 on U87 cell line; conditions: for IC50: read-out: IC50 {U87} (in μM), MTS assay, 48 h incubation
Method: (§7) MTS [3-(4,5-dimethylthiazol-2-yl)-5-(3-carboxymethoxyphenyl)-2-(4-sulphophenyl)-2H-tetrazolium] is reduced to formazan (coloured compound, the optical density of which is measured at 492 nm) by the mitochondrial dehydrogenases. Only the live cells will reduce MTS to formazan, which will be released in the medium. The optical density measured at 492 nm is directly proportional to the number of live cells.
(§8) MTS [3-(4,5-dimethylthiazol-2-yl)-5-(3-carboxymethoxyphenyl)-2-(4-sulphophenyl)-2H-tetrazolium], soluble in the culture medium, can be reduced to formazan (coloured product) by the mitochondrial dehydrogenases of the live cells. The measured optical density (492 nm) is therefore directly proportional to the quantity of live cells. The cells are deposited in a 96-well plate at 1.10^4 cells per well in 100 μL of RPMI 5% FCS. The cells are then treated with the various molecules at the desired concentrations and then incubated for 48 h at 37° C. (5% CO2). After treatment, 20 μL of MTS is added to each well. After incubation for two hours at 37° C. the optical density is measured at an absorbance of 492 nm using the plate reader Wallac Victor 2 Multi-label Counter (Technical University of Denmark, Kongens Lyngby, Denmark). All the treatments are carried out in triplicate. The blank, determined by incubating RPMI with MTS, is deducted from the values of the wells containing cells. The percentage of live cells is calculated from the following formula: (OD experiment*100)/OD control.
(§9) The cytotoxicity of the compounds according to the invention is measured in vitro on the Hela and U87 cell lines.
U87: stage IV glioblastoma, expresses αVβ5 and can be used as a xenograft
(§10) The cytotoxicity of a compound with respect to a cancer cell line is evaluated from the value of the inhibitory concentration IC50 of said compound with respect to said cell line.
(§11) The MTS assay gives an optical density signal that is proportional to the quantity of live cells (in a linear range). These values, as well as the untreated controls, are used for calculating the percentage of live cells at each concentration. […] The IC50 values are calculated on the basis of 4-parameter fitting using the Sigma Plot software.

Hela = experiment: MTS cytotoxicity assay, IC50 on Hela cell line; conditions: for IC50: read-out: IC50 {Hela} (in μM), MTS assay, 48 h incubation
Method: as §7, §8, §9, §10, §11

[13] = tested on: cell lines KB, SK-OV3, OVCAR-8, HL60, MCF7, HCT116, PC3, MRCS, Vero and EPC; experiment: Cellular inhibition, overall statements on the panel of cell lines; type: cell-based; conditions: 10 μM, panel of cancer and non-cancerous cell lines
Text: The results obtained are presented below.

[14] = Measurement of water-solubility; type: physicochemical
integrin αvβ3 = integrin αvβ3 (Homo sapiens, UniProt P05106+P06756); conditions: background statement; cited from earlier work
integrin αvβ3, sequence (P06756 31-889 limits assumed): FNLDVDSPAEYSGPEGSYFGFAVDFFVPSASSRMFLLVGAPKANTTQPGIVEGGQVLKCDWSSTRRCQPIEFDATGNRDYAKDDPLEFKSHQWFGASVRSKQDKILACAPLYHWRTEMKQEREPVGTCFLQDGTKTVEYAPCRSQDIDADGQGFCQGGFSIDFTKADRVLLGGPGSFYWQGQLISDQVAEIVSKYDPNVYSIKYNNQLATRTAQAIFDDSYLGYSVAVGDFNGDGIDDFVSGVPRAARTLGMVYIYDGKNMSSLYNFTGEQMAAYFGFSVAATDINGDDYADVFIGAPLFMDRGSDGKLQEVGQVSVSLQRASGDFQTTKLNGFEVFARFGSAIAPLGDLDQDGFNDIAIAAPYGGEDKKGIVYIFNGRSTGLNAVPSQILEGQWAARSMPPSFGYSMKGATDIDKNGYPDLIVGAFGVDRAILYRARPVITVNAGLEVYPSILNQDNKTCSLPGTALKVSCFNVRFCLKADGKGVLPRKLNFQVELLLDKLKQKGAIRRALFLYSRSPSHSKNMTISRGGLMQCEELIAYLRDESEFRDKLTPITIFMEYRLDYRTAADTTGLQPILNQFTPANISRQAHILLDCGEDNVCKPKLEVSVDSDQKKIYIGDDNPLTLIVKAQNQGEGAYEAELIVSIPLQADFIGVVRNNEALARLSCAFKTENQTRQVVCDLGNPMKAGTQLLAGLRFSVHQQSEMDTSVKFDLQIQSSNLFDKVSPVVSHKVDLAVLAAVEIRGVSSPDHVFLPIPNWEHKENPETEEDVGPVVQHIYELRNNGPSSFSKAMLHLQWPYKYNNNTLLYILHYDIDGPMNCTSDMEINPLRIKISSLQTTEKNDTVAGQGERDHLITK
integrin αvβ3, sequence (P06756 891-1048 partner limits assumed): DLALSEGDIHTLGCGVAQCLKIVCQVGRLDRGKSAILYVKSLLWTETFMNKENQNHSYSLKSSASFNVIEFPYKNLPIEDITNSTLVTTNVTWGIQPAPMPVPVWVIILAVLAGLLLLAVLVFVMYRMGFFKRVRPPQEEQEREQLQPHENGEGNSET
integrin αvβ3, sequence (P05106 27-788): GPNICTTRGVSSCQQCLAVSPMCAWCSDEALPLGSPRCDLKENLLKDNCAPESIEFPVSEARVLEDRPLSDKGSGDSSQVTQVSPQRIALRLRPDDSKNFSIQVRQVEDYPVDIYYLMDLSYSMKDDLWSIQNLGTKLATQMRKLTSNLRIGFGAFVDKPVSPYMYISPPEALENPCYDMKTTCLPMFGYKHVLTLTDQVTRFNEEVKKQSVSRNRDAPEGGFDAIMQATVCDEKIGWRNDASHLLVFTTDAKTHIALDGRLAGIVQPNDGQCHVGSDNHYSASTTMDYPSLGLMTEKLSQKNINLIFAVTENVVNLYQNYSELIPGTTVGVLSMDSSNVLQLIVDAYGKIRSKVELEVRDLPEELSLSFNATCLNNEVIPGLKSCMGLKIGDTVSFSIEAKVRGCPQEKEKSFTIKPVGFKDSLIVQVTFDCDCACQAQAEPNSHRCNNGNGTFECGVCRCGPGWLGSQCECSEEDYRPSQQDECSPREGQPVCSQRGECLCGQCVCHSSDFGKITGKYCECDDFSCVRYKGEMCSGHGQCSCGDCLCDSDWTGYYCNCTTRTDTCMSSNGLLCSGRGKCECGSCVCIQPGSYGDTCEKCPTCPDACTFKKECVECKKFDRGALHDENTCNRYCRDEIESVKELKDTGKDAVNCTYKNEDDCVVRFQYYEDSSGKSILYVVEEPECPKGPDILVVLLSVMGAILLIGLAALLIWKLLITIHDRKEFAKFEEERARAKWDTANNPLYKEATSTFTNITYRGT

[15] = measured by first dissolving cisplatin in water

| Compound | IC50 (MCF7 [1]) [µM] | IC50 (SK-OV3 [4]) [µM] | Inhibition (in %) {KB} (KB) [%] | Inhibition (in %) {SK-OV3} (SK-OV3 [7]) [%] | Inhibition (in %) {OVCAR8} (OVCAR8 [8]) [%] | Inhibition (in %) {HL60} (HL60) [%] | Inhibition (in %) {MCF7} (MCF7 [9]) [%] | Inhibition (in %) {HCT116} (HCT116 [10]) [%] | Inhibition (in %) {PC3} (PC3 [11]) [%] | Inhibition (in %) {MRC5} (MRC5) [%] | Inhibition (in %) {Vero} (Vero) [%] | Inhibition (in %) {EPC} (EPC [12]) [%] | anti-angiogenic activity by inhibition of growth of EPC cells (in words) (EPC [12]; 10 μM) | inhibition of cell growth, overall statement on the cell panel (in words) [13] | also measured |
| --- | --- | --- | --- | --- | --- | --- | --- | --- | --- | --- | --- | --- | --- | --- | --- |
| N.N.[Cl][Pt][Cl] [Cisplatin, cisplatin, reference compound] | > 10 | > 10 | 3.6 | 4.4 | −1.8 | −10.6 | −4.1 | 2.7 | −6.2 | −20.4 | −4.0 | −1.2 |  |  | IC50 (HCT116 [2]; [15]): 5.5 µM; IC50 (PC3 [3]; [15]): 5.1 µM; IC50 (OVCAR8 [5]): > 10 µM; IC50 (EPC [6]): > 10 µM; IC50 (U87): 8 µM; IC50 (Hela): 26.2 µM |
| COCCOCCOCCOCCn1ccn(C)[c]1=[Pt]([I])[I].NC1CCCCC1 [Example 13, trans-diiodo(N-cyclohexylamine)[1-methyl-3-(2,5,8,11-tetraoxatridecan-13-yl)-imidazol-2-ylidene]platinum(II)] |  |  | 100.4 | 90.9 | 92.4 | 87.3 | 94.2 | 94.0 | 83.8 |  |  | 96.1 | anti-angiogenic activity | improves the activity of inhibition of cell growth |  |
| COCCOCCOCCOCCn1ccn(CCOCCOCCOCCOC)[c]1=[Pt]([I])[I].NC1CCCCC1 [Example 14, trans-diiodo(N-cyclohexylamine)[1,3-di(2,5,8,11-tetraoxatridecan-13-yl)-imidazol-2-ylidene]platinum(II)] |  | 6.2 | 26.6 | 62.8 | 78.4 | 31.2 | 18.6 | 31.9 | 5.7 | 24.5 | 17.0 | 27.2 |  | selective inhibitor of the growth of cancer cells | IC50 (OVCAR8 [5]): 3.9 µM; selectivity of inhibition of cell growth, SKOV-3 (in words) (SK-OV3 [7]; 10 μM): selective with respect to the ovarian cancer cells SKOV-3 and OVCAR8; selectivity of inhibition of cell growth, OVCAR8 (in words) (OVCAR8 [8]; 10 μM): selective with respect to the ovarian cancer cells SKOV-3 and OVCAR8; cytotoxicity on non-cancerous cells MRCS (in words) (MRC5; 10 μM): low cytotoxicity; cytotoxicity on non-cancerous cells Vero (in words) (Vero): low cytotoxicity; cytotoxicity on non-cancerous cells EPC (in words) (EPC [12]; 10 μM): low cytotoxicity |
| CN1C=CN(Cc2ccccc2)[CH]1[Pt]([I])([I])[NH]CCN (stereo not drawn) [Example 33, trans-diiodo(N-ethylenediamine)[1-methyl-3-benzyl-imidazol-2-ylidene]platinum(II)] |  |  |  |  |  |  |  |  |  |  |  |  |  |  | solubility ([14]; water, thermodynamic from solid, ambient temperature and pressure): 3300 µg/mL |
| CNC(=O)NCC(Cc1ccccc1)NC(=O)NCC(Cc1ccccc1)NC(=O)NCC(Cc1ccccc1)NC(=O)NCC(N)Cc1ccccc1.Cn1ccn(Cc2ccccc2)[c]1=[Pt]([I])[I] [Example 39, trans-diiodo(N-[1-((2R,7R,12R,17R)-17-amino-2,7,12-tribenzyl-4,9,14-trioxo-18-phenyl-3,5,8,10,13,15-hexaazaoctadecyl)-3-methylurea])[1-methyl-3-benzyl-imidazol-2-ylidene]platinum(II)] | 0.6 | 0.6 | 101.2 | 95.2 | 92.1 | 91.0 | 95.9 | 96.1 | 90.9 |  |  | 99.3 | anti-angiogenic activity |  | IC50 (HCT116 [2]; colon carcinoma): 0.4 µM; IC50 (PC3 [3]; prostatic adenocarcinoma): 1.4 µM; IC50 (EPC [6]): 1.9 µM |
| cyclo(RGDfK) [cyclo(RGDfK) peptide] |  |  |  |  |  |  |  |  |  |  |  |  |  |  | affinity for integrin αvβ3 (in words) (integrin αvβ3): high affinity |
| trans-diiodo(N-[(methoxy)polyethylene glycol amine])[1-methyl-3-benzyl-imidazol-2-ylidene]platinum(II) [Example 22] |  |  | 77.8 | 90.3 | 90.0 | 87.4 | 91.7 | 94.3 | 78.5 |  |  | 93.7 | anti-angiogenic activity |  | Water-solubility ([14]; ambient temperature and pressure): 11100 µg/mL |
| trans-diiodo(N-poly(ethylenamine))[1-methyl-3-benzyl-imidazol-2-ylidene]platinum(II) [Example 34] | 1.7 | 1.2 | 64.0 | 99.1 | 79.1 | 97.0 | 98.2 | 90.1 | 64.2 | 26.4 | 19.5 | 95.8 | anti-angiogenic activity | inhibitor of the growth of cancer cells and an anti-angiogenic agent; also recorded: cytotoxic activity on all of the cancer cells tested | IC50 (HCT116 [2]; colon carcinoma): 1 µM; IC50 (PC3 [3]; prostatic adenocarcinoma): 2.8 µM; cytotoxicity on non-cancerous cells Vero (in words) (Vero): low cytotoxicity; Water-solubility [14]: 6700 µg/mL; cytotoxic activity compared with cisplatin, U87 cell line (in words) (U87; comparison with cisplatin): almost identical to that of cisplatin; IC50 (U87): 8.3 µM; cytotoxic activity compared with cisplatin, HeLa cell line (in words) (Hela; comparison with cisplatin): almost identical to that of cisplatin; IC50 (Hela): 28.4 µM |
